According to patent US8658604B2, “Template-fixed beta-hairpin peptidomimetics with protease inhibitory activity” (Polyphor Ltd, priority 2005, dated 2014):
Where a SMILES comes first, the peptide text is derived from it.

How the values were obtained:
[1] = system: HELA cells (Acc57); experiment: Cytotoxicity assay (MTT reduction), HELA cells; format: cell-based; conditions: Hela cells
Protocol: The cytotoxicity of the peptides to HELA cells (Acc57) and COS-7 cells (CRL-1651) was determined using the MTT reduction assay [see ref. 2 and 3, below]. Briefly the method was as follows: HELA cells and COS-7 cells were seeded at 7.0×10^3 and, respectively, 4.5×10^3 cells per well and grown in 96-well microtiter plates for 24 hours at 37° C. at 5% CO2. At this point, time zero (Tz) was determined by MTT reduction (see below). The supernatant of the remaining wells was discarded, and fresh medium and the peptides in serial dilutions of 12.5, 25 and 50 μM were pipetted into the wells. Each peptide concentration was assayed in triplicate. Incubation of the cells was continued for 48 hours at 37° C. at 5% CO2. Wells were then washed once with phosphate buffered saline (PBS) and subsequently 100 μl MTT reagent (0.5 mg/ml in medium RPMI1640 and, respectively, DMEM) were added to the wells. This was incubated at 37° C. for 2 hours and subsequently the medium was aspirated and 100 μl isopropanol were added to each well. The absorbance at 595 nm of the solubilized product was measured (OD595peptide). For each concentration averages were calculated from triplicates. The percentage of growth was calculated as follows: (OD595peptide-OD595Tz-OD595Empty well)/(OD595Tz-OD595Empty well)×100% and was plotted for each peptide concentration.
The LC 50 values (Lethal Concentration, defined as the concentration that kills 50% of the cells) were determined for each peptide by using the trend line function of EXCEL (Microsoft Office 2000) for the concentrations (50, 25, 12.5 and 0 μM), the corresponding growth percentages and the value −50, (=TREND(C50:C0,%50:%0,−50)).
The GI 50 (Growth Inhibition) concentrations were calculated for each peptide by using a trend line function for the concentrations (50, 25, 12.5 and 0 μg/ml), the corresponding percentages and the value 50, (=TREND (C50:C0,%50:%0,50).

[2] = target: T1, CathepsinG, from human neutrophils (Homo sapiens, UniProt P08311); experiment: Enzymatic assay, cathepsin G; conditions: for IC50: Cathepsin G IC50
T1 sequence (P08311 21-244): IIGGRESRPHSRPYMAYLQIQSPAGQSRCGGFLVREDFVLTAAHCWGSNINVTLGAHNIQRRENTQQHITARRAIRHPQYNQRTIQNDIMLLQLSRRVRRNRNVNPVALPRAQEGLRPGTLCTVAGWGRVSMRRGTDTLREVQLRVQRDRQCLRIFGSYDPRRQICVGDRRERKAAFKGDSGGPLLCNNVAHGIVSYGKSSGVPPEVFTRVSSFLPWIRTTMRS

[3] = system: Tryptase, from human lung; experiment: Enzymatic assay, tryptase; conditions: at 100 μM
[4] = target: Urokinase from human urine (Homo sapiens, UniProt P00749); experiment: Enzymatic assay, urokinase
[5] = target: T2, Elastase from human neutrophils (Homo sapiens, UniProt P08246); experiment: Enzymatic assay, elastase; conditions: Elastase IC50
T2 sequence (P08246 30-267): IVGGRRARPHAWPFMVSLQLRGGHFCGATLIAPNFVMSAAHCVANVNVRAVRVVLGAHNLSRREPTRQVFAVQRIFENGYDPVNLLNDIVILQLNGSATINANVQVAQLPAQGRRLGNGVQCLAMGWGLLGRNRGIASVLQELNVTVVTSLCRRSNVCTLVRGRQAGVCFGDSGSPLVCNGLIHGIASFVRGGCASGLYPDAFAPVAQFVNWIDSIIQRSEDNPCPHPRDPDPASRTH

[6] = target: Coagulation Factor Xa, from uman plasma (Homo sapiens, UniProt P00742); experiment: Enzymatic assay, coagulation factor Xa
Sequence of Coagulation Factor Xa, from uman plasma (P00742 235-488 limits assumed): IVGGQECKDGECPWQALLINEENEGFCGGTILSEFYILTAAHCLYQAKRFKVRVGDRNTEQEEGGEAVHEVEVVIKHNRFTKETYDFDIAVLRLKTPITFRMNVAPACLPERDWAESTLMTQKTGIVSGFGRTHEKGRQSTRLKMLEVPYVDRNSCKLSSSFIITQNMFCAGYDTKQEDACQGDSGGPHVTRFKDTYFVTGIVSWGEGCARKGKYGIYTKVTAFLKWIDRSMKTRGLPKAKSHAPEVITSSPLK
Sequence of Coagulation Factor Xa, from uman plasma (P00742 41-179 limits assumed): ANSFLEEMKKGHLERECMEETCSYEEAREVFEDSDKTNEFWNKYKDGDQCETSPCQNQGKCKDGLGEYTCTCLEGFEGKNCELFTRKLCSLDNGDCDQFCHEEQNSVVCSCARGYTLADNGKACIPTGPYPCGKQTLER

[7] = target: Thrombin, from Human Plasma (Homo sapiens, UniProt P00734); experiment: Enzymatic assay, thrombin
[8] = target: Chymotrypsin, from human pancreas (Homo sapiens, UniProt P17538); experiment: Enzymatic assay, chymotrypsin
Sequence of Chymotrypsin, from human pancreas (P17538 19-263): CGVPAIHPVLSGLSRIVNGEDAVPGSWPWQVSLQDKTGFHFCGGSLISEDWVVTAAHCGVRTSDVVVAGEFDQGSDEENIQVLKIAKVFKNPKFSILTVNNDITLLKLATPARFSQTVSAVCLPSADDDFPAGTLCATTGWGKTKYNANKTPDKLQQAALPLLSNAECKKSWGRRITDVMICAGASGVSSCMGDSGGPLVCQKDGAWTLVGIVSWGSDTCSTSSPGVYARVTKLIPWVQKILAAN

[9] = target: Trypsin, from human pancreas (Homo sapiens, UniProt P07477); experiment: Enzymatic assay, trypsin; conditions: at 100 μM
[10] = target: T3, Chymase, from human skin (Homo sapiens, UniProt P23946); experiment: Enzymatic assay, chymase
T3 sequence (P23946 22-247): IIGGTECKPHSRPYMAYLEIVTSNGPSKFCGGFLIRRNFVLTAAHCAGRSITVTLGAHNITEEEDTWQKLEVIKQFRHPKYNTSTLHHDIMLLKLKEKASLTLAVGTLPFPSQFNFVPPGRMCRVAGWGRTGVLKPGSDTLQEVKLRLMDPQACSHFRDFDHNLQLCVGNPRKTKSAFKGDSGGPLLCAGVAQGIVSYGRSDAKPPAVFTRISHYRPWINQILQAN

Structure (SMILES)	Cytotoxicity LC50/GI50 Hela cells [1]	IC50 [2]	Tryptase at 100 μM % [3]	Urokinase at 100 μM % [4]	IC50 [5]	FXa at 100 μM % [6]	Thrombin at 100 μM % [7]	IC50 [8]	Trypsin at 100 μM % [9]	Chymase at 100 μM % [10]	Cathepsin G at 100 μM % ([2]; at 100 μM)	Tryptase At 100 μM % [3]	Chymotrypsin at 100 μM % ([8]; at 100 μM)
CCCC[C@@H]1NC(=O)[C@@H]2CCCN2C(=O)[C@H]2CCCN2C(=O)[C@H](Cc2ccc(O)cc2)NC(=O)[C@@H]2CSSC[C@H](NC1=O)C(=O)N[C@@H]([C@@H](C)O)C(=O)N[C@@H](C)C(=O)N[C@@H](CO)C(=O)N[C@@H]([C@@H](C)CC)C(=O)N1CCC[C@H]1C(=O)N1CC(NC(=O)c3ccccc3)C[C@H]1C(=O)N[C@@H](CCC(N)=O)C(=O)N2 (single isomer, unassigned) [Ex. 88]	73 µM	> 100 µM	0.6%	96%	18 nM	3%	0.2%	4.31 µM	6.4%	0%	–	–	–
CCCC[C@@H]1NC(=O)[C@@H]2CCCN2C(=O)[C@H]2CCCN2C(=O)[C@H](Cc2ccc(O)cc2)NC(=O)[C@@H]2CSSC[C@H](NC1=O)C(=O)N[C@@H]([C@@H](C)O)C(=O)N[C@@H](C)C(=O)N[C@@H](CO)C(=O)N[C@@H](C1CCCCC1)C(=O)N1CCC[C@H]1C(=O)N1CCC[C@H]1C(=O)N[C@@H](CCC(N)=O)C(=O)N2 [Ex. 84] (HELM PEPTIDE1{[Nle].C.T.A.S.[O=C([C@@H](N[*:1])C1CCCCC1)[*:2]].P.P.Q.C.Y.[dP].P}$PEPTIDE1,PEPTIDE1,2:R3-10:R3|PEPTIDE1,PEPTIDE1,1:R1-13:R2$$$V2.0)	9 µM	20.2 µM	4.2%	10.4%	18 nM	13.3%	20.6%	17.1 µM	10.8%	0%	–	–	–
CCCC[C@@H]1NC(=O)[C@@H]2CCCN2C(=O)[C@H]2CCCN2C(=O)[C@H](Cc2ccccc2)NC(=O)[C@@H]2CSSC[C@H](NC1=O)C(=O)N[C@@H]([C@@H](C)O)C(=O)N[C@@H](C)C(=O)N[C@@H](CO)C(=O)N[C@@H]([C@@H](C)CC)C(=O)N1CCC[C@H]1C(=O)N1CCC[C@H]1C(=O)N[C@@H](CCC(N)=O)C(=O)N2 [Ex. 90] (HELM PEPTIDE1{[Nle].C.T.A.S.I.P.P.Q.C.F.[dP].P}$PEPTIDE1,PEPTIDE1,2:R3-10:R3|PEPTIDE1,PEPTIDE1,1:R1-13:R2$$$V2.0)	96 µM	67 µM	5%	3.5%	21 nM	5.5%	0%	33.1 µM	5.2%	0%	–	–	–
CCCC[C@@H]1NC(=O)[C@@H]2CCCN2C(=O)[C@H]2CCCN2C(=O)[C@H](Cc2ccc3ccccc3c2)NC(=O)[C@@H]2CSSC[C@H](NC1=O)C(=O)N[C@@H]([C@@H](C)O)C(=O)N[C@@H](C)C(=O)N[C@@H](CO)C(=O)N[C@@H]([C@@H](C)CC)C(=O)N1CCC[C@H]1C(=O)N1CCC[C@H]1C(=O)N[C@@H](CCC(N)=O)C(=O)N2 [Ex. 95] (HELM PEPTIDE1{[Nle].C.T.A.S.I.P.P.Q.C.[O=C([C@H](Cc1ccc2ccccc2c1)N[*:1])[*:2]].[dP].P}$PEPTIDE1,PEPTIDE1,2:R3-10:R3|PEPTIDE1,PEPTIDE1,1:R1-13:R2$$$V2.0)	89 µM	38.7 µM	0%	10.3%	24 nM	11.3%	0%	33.7 µM	8.9%	0%	–	–	–
CCCC[C@@H]1NC(=O)[C@@H]2CCCN2C(=O)[C@H]2CCCN2C(=O)[C@H](Cc2ccccc2Cl)NC(=O)[C@@H]2CSSC[C@H](NC1=O)C(=O)N[C@@H]([C@@H](C)O)C(=O)N[C@@H](C)C(=O)N[C@@H](CO)C(=O)N[C@@H]([C@@H](C)CC)C(=O)N1CCC[C@H]1C(=O)N1CCC[C@H]1C(=O)N[C@@H](CCC(N)=O)C(=O)N2 [Ex. 96] (HELM PEPTIDE1{[Nle].C.T.A.S.I.P.P.Q.C.[O=C([C@H](Cc1ccccc1Cl)N[*:1])[*:2]].[dP].P}$PEPTIDE1,PEPTIDE1,2:R3-10:R3|PEPTIDE1,PEPTIDE1,1:R1-13:R2$$$V2.0)	52 µM	21.2 µM	0%	6.2%	15 nM	0%	3.6%	15.4 µM	7.5%	0%	–	–	–
CCCC[C@@H]1NC(=O)[C@@H]2CCCN2C(=O)[C@H]2CCCN2C(=O)[C@H](CC2CCCCC2)NC(=O)[C@@H]2CSSC[C@H](NC1=O)C(=O)N[C@@H]([C@@H](C)O)C(=O)N[C@@H](C)C(=O)N[C@@H](CO)C(=O)N[C@@H]([C@@H](C)CC)C(=O)N1CCC[C@H]1C(=O)N1CCC[C@H]1C(=O)N[C@@H](CCC(N)=O)C(=O)N2 [Ex. 97] (HELM PEPTIDE1{[Nle].C.T.A.S.I.P.P.Q.C.[Cha].[dP].P}$PEPTIDE1,PEPTIDE1,2:R3-10:R3|PEPTIDE1,PEPTIDE1,1:R1-13:R2$$$V2.0)	100 µM	> 100 µM	0%	11.9%	24 nM	4.8%	11.6%	77.4 µM	9.5%	0%	–	–	–
CCCC[C@@H]1NC(=O)[C@@H]2CCCN2C(=O)[C@H]2CCCN2C(=O)[C@H](c2ccccc2)NC(=O)[C@@H]2CSSC[C@H](NC1=O)C(=O)N[C@@H]([C@@H](C)O)C(=O)N[C@@H](C)C(=O)N[C@@H](CO)C(=O)N[C@@H]([C@@H](C)CC)C(=O)N1CCC[C@H]1C(=O)N1CCC[C@H]1C(=O)N[C@@H](CCC(N)=O)C(=O)N2 [Ex. 98] (HELM PEPTIDE1{[Nle].C.T.A.S.I.P.P.Q.C.[Phg].[dP].P}$PEPTIDE1,PEPTIDE1,2:R3-10:R3|PEPTIDE1,PEPTIDE1,1:R1-13:R2$$$V2.0)	78 µM	> 100 µM	0%	0%	21 nM	0%	5.2%	38.8 µM	0%	0%	–	–	–
CCCC[C@@H]1NC(=O)[C@@H]2CCCN2C(=O)[C@H]2CCCN2C(=O)[C@H](Cc2ccc(O)cc2)NC(=O)[C@@H]2CSSC[C@H](NC1=O)C(=O)N[C@@H]([C@@H](C)O)C(=O)N[C@@H](C)C(=O)N[C@@H](CO)C(=O)N[C@@H](CC1CCCCC1)C(=O)N1CCC[C@H]1C(=O)N1CCC[C@H]1C(=O)N[C@@H](CCC(N)=O)C(=O)N2 [Ex. 141] (HELM PEPTIDE1{[Nle].C.T.A.S.[Cha].P.P.Q.C.Y.[dP].P}$PEPTIDE1,PEPTIDE1,2:R3-10:R3|PEPTIDE1,PEPTIDE1,1:R1-13:R2$$$V2.0)	56 µM	–	–	–	–	15.3%	0%	–	0%	0%	63.4 at 100%	44.5%	72.9%
